{"source": "ChEMBL document CHEMBL1148250", "about": "“MexAB-OprM specific efflux pump inhibitors in Pseudomonas aeruginosa. Part 4: Addressing the problem of poor stability due to photoisomerization of an acrylic acid moiety” (2004)", "type_in_all_cases": "functional", "key": {"Pseudomonas aeruginosa [1]": {"test_system": "Pseudomonas aeruginosa", "experiment": "Minimum concentration (using PAM1723, a strain of Pseudomonas aeruginosa) required to reduce antibacterial activity by 8 folds for aztreonam in the presence 0.125% of human serum albumin"}, "Pseudomonas aeruginosa [2]": {"test_system": "Pseudomonas aeruginosa", "experiment": "Minimum concentration (using PAM1723, a strain of Pseudomonas aeruginosa) required to reduce antibacterial activity by 4 folds for Levofloxacin"}, "Pseudomonas aeruginosa [3]": {"test_system": "Pseudomonas aeruginosa", "experiment": "Minimum concentration (using PAM1723, a strain of Pseudomonas aeruginosa) required to reduce antibacterial activity by 8 folds for Levofloxacin"}, "Pseudomonas aeruginosa [4]": {"test_system": "Pseudomonas aeruginosa", "experiment": "Minimum concentration (using PAM1723, a strain of Pseudomonas aeruginosa) required to reduce antibacterial activity by 8 folds for aztreonam in the absence of human serum albumin"}}, "data": [{"smiles": "CC(C)(C)c1csc(NC(=O)c2ccn3c(=O)c(/C=C/c4nn[nH]n4)c(N4CCC[C@H](OC(N)=O)C4)nc3c2)n1", "values": [{"measurement": "MPC8", "setting": "Pseudomonas aeruginosa [1]", "value": 4, "unit": "µg/mL"}, {"measurement": "MPC4", "setting": "Pseudomonas aeruginosa [2]", "value": 0.5, "unit": "µg/mL"}, {"measurement": "MPC8", "setting": "Pseudomonas aeruginosa [3]", "value": 2, "unit": "µg/mL"}, {"measurement": "MPC8", "setting": "Pseudomonas aeruginosa [4]", "value": 1, "unit": "µg/mL"}]}, {"smiles": "CC(C)(C)c1csc(NC(=O)c2ccn3c(=O)c(/C=C/C(=O)O)c(N4CCC[C@@H](OC(N)=O)C4)nc3c2)n1", "values": [{"measurement": "MPC8", "setting": "Pseudomonas aeruginosa [1]", "value": 1, "unit": "µg/mL"}, {"measurement": "MPC4", "setting": "Pseudomonas aeruginosa [2]", "value": "<0.25", "unit": "µg/mL"}, {"measurement": "MPC8", "setting": "Pseudomonas aeruginosa [3]", "value": 1, "unit": "µg/mL"}, {"measurement": "MPC8", "setting": "Pseudomonas aeruginosa [4]", "value": 0.5, "unit": "µg/mL"}]}, {"smiles": "CC(C)c1csc(CCc2ccn3c(=O)c(/C=C/C(=O)O)c(N4CCCC(O)C4)nc3c2)n1", "note": "(stereo unspecified)", "values": [{"measurement": "MPC8", "setting": "Pseudomonas aeruginosa [1]", "value": 16, "unit": "µg/mL"}, {"measurement": "MPC4", "setting": "Pseudomonas aeruginosa [2]", "value": 0.5, "unit": "µg/mL"}, {"measurement": "MPC8", "setting": "Pseudomonas aeruginosa [3]", "value": 8, "unit": "µg/mL"}, {"measurement": "MPC8", "setting": "Pseudomonas aeruginosa [4]", "value": 8, "unit": "µg/mL"}]}, {"smiles": "CC(C)(C)c1csc(NC(=O)c2ccn3c(=O)c(/C=C/c4nnn[nH]4)c(N4CCC[C@@H](OC(N)=O)C4)nc3c2)n1", "values": [{"measurement": "MPC8", "setting": "Pseudomonas aeruginosa [1]", "value": 2, "unit": "µg/mL"}, {"measurement": "MPC4", "setting": "Pseudomonas aeruginosa [2]", "value": "<0.25", "unit": "µg/mL"}, {"measurement": "MPC8", "setting": "Pseudomonas aeruginosa [3]", "value": 0.5, "unit": "µg/mL"}, {"measurement": "MPC8", "setting": "Pseudomonas aeruginosa [4]", "value": "<0.25", "unit": "µg/mL"}]}]}
